Laboratory results taken from the supplement of paper PMC4862054.

These compounds were tested on Hs578T (assay: normalised response (% of control), CellTiter-Glo; higher = more viable cells (100 = DMSO, 0 = benzethonium chloride kill control)). Settings: incubation time: 72 h.
Experimental: (§1)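 DSRT, 72 h incubation, CellTox Green / CellTiter-Glo readout. Signal is normalised to DMSO and benzethonium chloride controls. Value is the normalised response at dose 3.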

Compound | normalised response [%]
N#Cc1ccc(COC[C@H]2O[C@@H](n3c(NCc4ccc(Cl)c(Cl)c4)nc4c(N)ncnc43)[C@H](O)[C@@H]2O)cc1 (100 nM) | 95.2
COc1cc(O)c2c(c1)/C=C/C[C@H](O)[C@H](O)C(=O)/C=C\C[C@H](C)OC2=O [(5Z)-7-Oxozeaenol] (100 nM) | 98.9
COc1cc(OC2CCN(C)CC2)ccc1Nc1ncc2c(n1)n(C1CCCC1)c(=O)n2C [AZ 3146] (100 nM) | 94.1
CNC(=O)c1cccc(-c2ccc3c(N4CCOC[C@@H]4C)nc(N4CCOC[C@@H]4C)nc3n2)c1 [AZD2014] (100 nM) | 93.6
O=C(/C=C/c1cccc(S(=O)(=O)Nc2ccccc2)c1)NO [Belinostat] (100 nM) | 95
Cc1ccc(NC(=O)c2ccc(CN3CCN(C)CC3)cc2)cc1Nc1nc(-c2cccnc2)cs1 [Masitinib] (100 nM) | 102
COC(=O)c1ccc2c(c1)NC(=O)/C2=C(\Nc1ccc(N(C)C(=O)CN2CCN(C)CC2)cc1)c1ccccc1 [Nintedanib] (100 nM) | 103
S=P(N1CC1)(N1CC1)N1CC1 [Thio-TEPA] (500 nM) | 101
CN(C)CCOc1ccc(/C(=C(/CCCl)c2ccccc2)c2ccccc2)cc1 [Toremifene] (100 nM) | 104

The compounds below were run on MDA-MB-468 in the same assay as above. Settings: incubation time: 72 h.
Experimental: as §1

Compound | normalised response [%]
N#Cc1ccc(COC[C@H]2O[C@@H](n3c(NCc4ccc(Cl)c(Cl)c4)nc4c(N)ncnc43)[C@H](O)[C@@H]2O)cc1 (100 nM) | 100
COc1cc(O)c2c(c1)/C=C/C[C@H](O)[C@H](O)C(=O)/C=C\C[C@H](C)OC2=O [(5Z)-7-Oxozeaenol] (100 nM) | 92.9
COc1cc(OC2CCN(C)CC2)ccc1Nc1ncc2c(n1)n(C1CCCC1)c(=O)n2C [AZ 3146] (100 nM) | 101
CNC(=O)c1cccc(-c2ccc3c(N4CCOC[C@@H]4C)nc(N4CCOC[C@@H]4C)nc3n2)c1 [AZD2014] (100 nM) | 94.7
O=C(/C=C/c1cccc(S(=O)(=O)Nc2ccccc2)c1)NO [Belinostat] (100 nM) | 83.6
Cc1ccc(NC(=O)c2ccc(CN3CCN(C)CC3)cc2)cc1Nc1nc(-c2cccnc2)cs1 [Masitinib] (100 nM) | 99.8
COC(=O)c1ccc2c(c1)NC(=O)/C2=C(\Nc1ccc(N(C)C(=O)CN2CCN(C)CC2)cc1)c1ccccc1 [Nintedanib] (100 nM) | 92.2
S=P(N1CC1)(N1CC1)N1CC1 [Thio-TEPA] (500 nM) | 101
CN(C)CCOc1ccc(/C(=C(/CCCl)c2ccccc2)c2ccccc2)cc1 [Toremifene] (100 nM) | 99.1

These compounds were tested on SK-BR-3 in the same assay as above. Settings: incubation time: 72 h.
Experimental: as §1

Compound | normalised response [%]
N#Cc1ccc(COC[C@H]2O[C@@H](n3c(NCc4ccc(Cl)c(Cl)c4)nc4c(N)ncnc43)[C@H](O)[C@@H]2O)cc1 (100 nM) | 104
COc1cc(O)c2c(c1)/C=C/C[C@H](O)[C@H](O)C(=O)/C=C\C[C@H](C)OC2=O [(5Z)-7-Oxozeaenol] (100 nM) | 108
COc1cc(OC2CCN(C)CC2)ccc1Nc1ncc2c(n1)n(C1CCCC1)c(=O)n2C [AZ 3146] (100 nM) | 98.1
CNC(=O)c1cccc(-c2ccc3c(N4CCOC[C@@H]4C)nc(N4CCOC[C@@H]4C)nc3n2)c1 [AZD2014] (100 nM) | 64.7
O=C(/C=C/c1cccc(S(=O)(=O)Nc2ccccc2)c1)NO [Belinostat] (100 nM) | 82.7
Cc1ccc(NC(=O)c2ccc(CN3CCN(C)CC3)cc2)cc1Nc1nc(-c2cccnc2)cs1 [Masitinib] (100 nM) | 99
COC(=O)c1ccc2c(c1)NC(=O)/C2=C(\Nc1ccc(N(C)C(=O)CN2CCN(C)CC2)cc1)c1ccccc1 [Nintedanib] (100 nM) | 98.3
S=P(N1CC1)(N1CC1)N1CC1 [Thio-TEPA] (500 nM) | 110
CN(C)CCOc1ccc(/C(=C(/CCCl)c2ccccc2)c2ccccc2)cc1 [Toremifene] (100 nM) | 102

The compounds below were run on HCC1143 in the same assay as above. Settings: incubation time: 72 h.
Experimental: as §1

Compound | normalised response [%]
N#Cc1ccc(COC[C@H]2O[C@@H](n3c(NCc4ccc(Cl)c(Cl)c4)nc4c(N)ncnc43)[C@H](O)[C@@H]2O)cc1 (100 nM) | 103
COc1cc(O)c2c(c1)/C=C/C[C@H](O)[C@H](O)C(=O)/C=C\C[C@H](C)OC2=O [(5Z)-7-Oxozeaenol] (100 nM) | 99
COc1cc(OC2CCN(C)CC2)ccc1Nc1ncc2c(n1)n(C1CCCC1)c(=O)n2C [AZ 3146] (100 nM) | 98.8
CNC(=O)c1cccc(-c2ccc3c(N4CCOC[C@@H]4C)nc(N4CCOC[C@@H]4C)nc3n2)c1 [AZD2014] (100 nM) | 92.3
O=C(/C=C/c1cccc(S(=O)(=O)Nc2ccccc2)c1)NO [Belinostat] (100 nM) | 89.1
Cc1ccc(NC(=O)c2ccc(CN3CCN(C)CC3)cc2)cc1Nc1nc(-c2cccnc2)cs1 [Masitinib] (100 nM) | 102
COC(=O)c1ccc2c(c1)NC(=O)/C2=C(\Nc1ccc(N(C)C(=O)CN2CCN(C)CC2)cc1)c1ccccc1 [Nintedanib] (100 nM) | 101
S=P(N1CC1)(N1CC1)N1CC1 [Thio-TEPA] (500 nM) | 97.5
CN(C)CCOc1ccc(/C(=C(/CCCl)c2ccccc2)c2ccccc2)cc1 [Toremifene] (100 nM) | 103

What follows are compounds tested on CAL-148 in the same assay as above. Settings: incubation time: 72 h.
Experimental: as §1

Compound | normalised response [%]
N#Cc1ccc(COC[C@H]2O[C@@H](n3c(NCc4ccc(Cl)c(Cl)c4)nc4c(N)ncnc43)[C@H](O)[C@@H]2O)cc1 (100 nM) | 104
COc1cc(O)c2c(c1)/C=C/C[C@H](O)[C@H](O)C(=O)/C=C\C[C@H](C)OC2=O [(5Z)-7-Oxozeaenol] (100 nM) | 101
COc1cc(OC2CCN(C)CC2)ccc1Nc1ncc2c(n1)n(C1CCCC1)c(=O)n2C [AZ 3146] (100 nM) | 99.2
CNC(=O)c1cccc(-c2ccc3c(N4CCOC[C@@H]4C)nc(N4CCOC[C@@H]4C)nc3n2)c1 [AZD2014] (100 nM) | 85.6
O=C(/C=C/c1cccc(S(=O)(=O)Nc2ccccc2)c1)NO [Belinostat] (100 nM) | 79.8
Cc1ccc(NC(=O)c2ccc(CN3CCN(C)CC3)cc2)cc1Nc1nc(-c2cccnc2)cs1 [Masitinib] (100 nM) | 106
COC(=O)c1ccc2c(c1)NC(=O)/C2=C(\Nc1ccc(N(C)C(=O)CN2CCN(C)CC2)cc1)c1ccccc1 [Nintedanib] (100 nM) | 106
S=P(N1CC1)(N1CC1)N1CC1 [Thio-TEPA] (500 nM) | 95.6
CN(C)CCOc1ccc(/C(=C(/CCCl)c2ccccc2)c2ccccc2)cc1 [Toremifene] (100 nM) | 109

The compounds below were run on CAL-85-1 in the same assay as above. Settings: incubation time: 72 h.
Experimental: as §1

Compound | normalised response [%]
N#Cc1ccc(COC[C@H]2O[C@@H](n3c(NCc4ccc(Cl)c(Cl)c4)nc4c(N)ncnc43)[C@H](O)[C@@H]2O)cc1 (100 nM) | 104
COc1cc(O)c2c(c1)/C=C/C[C@H](O)[C@H](O)C(=O)/C=C\C[C@H](C)OC2=O [(5Z)-7-Oxozeaenol] (100 nM) | 88.5
COc1cc(OC2CCN(C)CC2)ccc1Nc1ncc2c(n1)n(C1CCCC1)c(=O)n2C [AZ 3146] (100 nM) | 102
CNC(=O)c1cccc(-c2ccc3c(N4CCOC[C@@H]4C)nc(N4CCOC[C@@H]4C)nc3n2)c1 [AZD2014] (100 nM) | 87.6
O=C(/C=C/c1cccc(S(=O)(=O)Nc2ccccc2)c1)NO [Belinostat] (100 nM) | 85.6
Cc1ccc(NC(=O)c2ccc(CN3CCN(C)CC3)cc2)cc1Nc1nc(-c2cccnc2)cs1 [Masitinib] (100 nM) | 101
COC(=O)c1ccc2c(c1)NC(=O)/C2=C(\Nc1ccc(N(C)C(=O)CN2CCN(C)CC2)cc1)c1ccccc1 [Nintedanib] (100 nM) | 98.7
S=P(N1CC1)(N1CC1)N1CC1 [Thio-TEPA] (500 nM) | 103
CN(C)CCOc1ccc(/C(=C(/CCCl)c2ccccc2)c2ccccc2)cc1 [Toremifene] (100 nM) | 94.6

Each compound was assayed on HDQ-P1 in the same assay as above. Settings: incubation time: 72 h.
Experimental: as §1

Compound | normalised response [%]
N#Cc1ccc(COC[C@H]2O[C@@H](n3c(NCc4ccc(Cl)c(Cl)c4)nc4c(N)ncnc43)[C@H](O)[C@@H]2O)cc1 (100 nM) | 101
COc1cc(O)c2c(c1)/C=C/C[C@H](O)[C@H](O)C(=O)/C=C\C[C@H](C)OC2=O [(5Z)-7-Oxozeaenol] (100 nM) | 84.1
COc1cc(OC2CCN(C)CC2)ccc1Nc1ncc2c(n1)n(C1CCCC1)c(=O)n2C [AZ 3146] (100 nM) | 98.7
CNC(=O)c1cccc(-c2ccc3c(N4CCOC[C@@H]4C)nc(N4CCOC[C@@H]4C)nc3n2)c1 [AZD2014] (100 nM) | 70.5
O=C(/C=C/c1cccc(S(=O)(=O)Nc2ccccc2)c1)NO [Belinostat] (100 nM) | 83.7
Cc1ccc(NC(=O)c2ccc(CN3CCN(C)CC3)cc2)cc1Nc1nc(-c2cccnc2)cs1 [Masitinib] (100 nM) | 109
COC(=O)c1ccc2c(c1)NC(=O)/C2=C(\Nc1ccc(N(C)C(=O)CN2CCN(C)CC2)cc1)c1ccccc1 [Nintedanib] (100 nM) | 95
S=P(N1CC1)(N1CC1)N1CC1 [Thio-TEPA] (500 nM) | 102
CN(C)CCOc1ccc(/C(=C(/CCCl)c2ccccc2)c2ccccc2)cc1 [Toremifene] (100 nM) | 98.2

The compounds below were run on HCC1937 in the same assay as above. Settings: incubation time: 72 h.
Experimental: as §1

Compound | normalised response [%]
N#Cc1ccc(COC[C@H]2O[C@@H](n3c(NCc4ccc(Cl)c(Cl)c4)nc4c(N)ncnc43)[C@H](O)[C@@H]2O)cc1 (100 nM) | 95.3
COc1cc(O)c2c(c1)/C=C/C[C@H](O)[C@H](O)C(=O)/C=C\C[C@H](C)OC2=O [(5Z)-7-Oxozeaenol] (100 nM) | 92.4
COc1cc(OC2CCN(C)CC2)ccc1Nc1ncc2c(n1)n(C1CCCC1)c(=O)n2C [AZ 3146] (100 nM) | 96.2
CNC(=O)c1cccc(-c2ccc3c(N4CCOC[C@@H]4C)nc(N4CCOC[C@@H]4C)nc3n2)c1 [AZD2014] (100 nM) | 80.8
O=C(/C=C/c1cccc(S(=O)(=O)Nc2ccccc2)c1)NO [Belinostat] (100 nM) | 83.9
Cc1ccc(NC(=O)c2ccc(CN3CCN(C)CC3)cc2)cc1Nc1nc(-c2cccnc2)cs1 [Masitinib] (100 nM) | 103
COC(=O)c1ccc2c(c1)NC(=O)/C2=C(\Nc1ccc(N(C)C(=O)CN2CCN(C)CC2)cc1)c1ccccc1 [Nintedanib] (100 nM) | 94.9
S=P(N1CC1)(N1CC1)N1CC1 [Thio-TEPA] (500 nM) | 95.4
CN(C)CCOc1ccc(/C(=C(/CCCl)c2ccccc2)c2ccccc2)cc1 [Toremifene] (100 nM) | 99.7

Each compound was assayed on MCF-10A in the same assay as above. Settings: incubation time: 72 h.
Experimental: as §1

Compound | normalised response [%]
N#Cc1ccc(COC[C@H]2O[C@@H](n3c(NCc4ccc(Cl)c(Cl)c4)nc4c(N)ncnc43)[C@H](O)[C@@H]2O)cc1 (100 nM) | 102
COc1cc(O)c2c(c1)/C=C/C[C@H](O)[C@H](O)C(=O)/C=C\C[C@H](C)OC2=O [(5Z)-7-Oxozeaenol] (100 nM) | 84.8
COc1cc(OC2CCN(C)CC2)ccc1Nc1ncc2c(n1)n(C1CCCC1)c(=O)n2C [AZ 3146] (100 nM) | 96.7
CNC(=O)c1cccc(-c2ccc3c(N4CCOC[C@@H]4C)nc(N4CCOC[C@@H]4C)nc3n2)c1 [AZD2014] (100 nM) | 97.3
O=C(/C=C/c1cccc(S(=O)(=O)Nc2ccccc2)c1)NO [Belinostat] (100 nM) | 81.3
Cc1ccc(NC(=O)c2ccc(CN3CCN(C)CC3)cc2)cc1Nc1nc(-c2cccnc2)cs1 [Masitinib] (100 nM) | 91.6
COC(=O)c1ccc2c(c1)NC(=O)/C2=C(\Nc1ccc(N(C)C(=O)CN2CCN(C)CC2)cc1)c1ccccc1 [Nintedanib] (100 nM) | 93.4
